# Experimental data: article PMC10107917 (ACS Medicinal Chemistry Letters, 2023)
# pKi: −log10 of the molar value. Bridge positions count the residues as written; N and C are the ends. Peptide text beside a SMILES is read from it.
# Key:
# [1] = biological target: T1, matriptase-1 (MT1) (Homo sapiens, UniProt Q9Y5Y6); assay: Selectivity assay against matriptase-1; format: biochemical; details: Figure S1
# T1 construct: Recombinant human matriptase-1/ST14 catalytic domain; purchased R&D Systems, USA
# T1 sequence (Q9Y5Y6 615-854 limits assumed): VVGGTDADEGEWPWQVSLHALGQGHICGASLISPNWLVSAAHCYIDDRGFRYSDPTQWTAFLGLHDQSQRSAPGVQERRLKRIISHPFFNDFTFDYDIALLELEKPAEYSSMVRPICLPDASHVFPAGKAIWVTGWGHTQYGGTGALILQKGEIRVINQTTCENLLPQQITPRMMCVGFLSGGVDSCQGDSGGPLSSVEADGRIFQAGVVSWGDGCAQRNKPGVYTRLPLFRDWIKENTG
# Experimental: The selectivities of the strongest furin inhibitors 3, 5, 6, and FI were assessed using commercially available, purified, recombinant proteases, namely, matriptase-1 (MT1) and matriptase-2 (MT2). Both enzymes belong to the type II transmembrane serine proteases, present trypsin-like specificity, and share high structural similarity but differ in biological activity.[33] […]
# The IC50 values (inhibitor concentrations giving 50% inhibition of enzyme activity) were calculated from plots of enzyme activity (% of control sample) versus the inhibitor’s concentration using a four-parameter fit model (GraFit 5.0.12 Erithacus Software Ltd.). The IC50 values were determined from triplicate measurements with at least seven different inhibitor concentrations. The K i values […] were calculated using the Cheng-Prusoff equation, assuming the competitive mode of inhibition, according to the following relationship: IC50 = K i(1+S/Km). All measurements were performed using a Fluostar Omega microplate reader (BMG Labtech, Germany) and 96-well black plates (BRAND, Germany). Recombinant human matriptase-1/ST14 catalytic domain was purchased from R&D Systems, USA. Recombinant human matriptase-2 was obtained from Enzo Life Sciences, Switzerland.
# Soluble human recombinant furin was kindly gifted by Dr Anna Kwiatkowska (group of Prof. Robert Day from Université de Sherbrooke).4
# The following assay buffers were used: […] (matriptase-1 and matriptase-2), pH 7.5 100 mM HEPES with 1 mM CaCl 2 and 1.8 mg/mL BSA (furin). The substrates used in the assays were as follows: for matriptase-1 and matriptase-2 Boc-Gln-Ala-Arg-AMC (Pepta Nova, Germany) in final concentration of 5 µM, for furin […] (Pepta Nova, Germany) in final concentration of 20 µM. Enzymes concentrations were as follows: 1.25 ng/mL of matriptase-1, 1.51 U/mL for matriptase-2, and 1.1 nM for furin. In the case of matriptase-1 and matripase-2 concentrations were calculated according to information provided by the suppliers.
# In short, the tested compounds were added to the appropriate protease in different concentrations and incubated in an assay buffer at 37 °C for 30 min. […] Reactions were monitored for at least 40 min at 37 °C. […] The percentage inhibition of an enzyme was calculated relative to the control sample without an inhibitor. The K m value for furin substrate was determined by incubating the enzyme with its substrate in various concentrations as recommended.5 Plots of the substrate concentration versus the initial reaction velocity were analyzed according to Michaelis-Menten equation using GraFit 5.0.12 Erithacus Software Ltd. A double reciprocal (Lineweaver-Burk) plot was used to determine the Michaelis constant K m value. […]
# [2] = biological target: furin; details: cited from earlier work
Compound,activity against MT1 [1],pKi [2]
"CC[C@H](C)[C@@H]1NC(=O)[C@@H]2CCCN2C(=O)[C@@H]2CCCN2C(=O)[C@H]([C@@H](C)CC)NC(=O)[C@H](CO)NC(=O)[C@H](CCCCN)NC(=O)[C@H](CCCCN)NC(=O)[C@@H](NC(=O)[C@H](CCCNC(=N)N)NC(=O)[C@@H](N)CCCCN)CSSC[C@@H](C(=O)N[C@@H](Cc2ccccc2)C(N)=O)NC1=O [FI, Lys-Arg-Cys(&)-Lys-Lys-Ser-Ile-Pro-Pro-Ile-Cys(&)-Phe-NH2, reference compound] (H-KRCKKSIPPICF-NH2; disulfide 3-11; N-terminus assumed)",not active,9.31
"CC[C@H](C)[C@@H]1NC(=O)[C@@H]2CCCN2C(=O)[C@@H]2CCCN2C(=O)[C@H]([C@@H](C)CC)NC(=O)[C@H](CO)NC(=O)[C@H](CCCCN)NC(=O)[C@H](CCCCN)NC(=O)[C@@H](NC(=O)[C@H](CCCNC(=N)N)NC(=O)[C@H](CCCNC(=N)N)NC(=O)[C@@H](N)CCCNC(=N)N)CSSC[C@@H](C(=O)N[C@@H](Cc2ccccc2)C(N)=O)NC1=O [inhibitor 3, Arg-Arg-Arg-Cys(&)-Lys-Lys-Ser-Ile-Pro-Pro-Ile-Cys(&)-Phe-NH2] (H-RRRCKKSIPPICF-NH2; disulfide 4-12)",not active,
"CC[C@H](C)[C@@H]1NC(=O)[C@@H]2CCCN2C(=O)[C@@H]2CCCN2C(=O)[C@H]([C@@H](C)CC)NC(=O)[C@H](CO)NC(=O)[C@H](CCCCN)NC(=O)[C@H](CCCCN)NC(=O)[C@@H]2CSSC[C@H](NC1=O)C(=O)N[C@@H](Cc1ccccc1)C(=O)N[C@@H](CCCCN)C(=O)N[C@@H](CCCNC(=N)N)C(=O)N[C@@H](CCCNC(=N)N)C(=O)N2 [inhibitor 5, &^1Lys-Arg-Arg-Cys(&^2)-Lys-Lys-Ser-Ile-Pro-Pro-Ile-Cys(&^2)-Phe&^1] (cyclo(KRRCKKSIPPICF); disulfide 4-12)",not active,
"CC[C@H](C)[C@@H]1NC(=O)[C@@H]2CCCN2C(=O)[C@@H]2CCCN2C(=O)[C@H]([C@@H](C)CC)NC(=O)[C@H](CO)NC(=O)[C@H](CCCCN)NC(=O)[C@H](CCCCN)NC(=O)[C@@H]2CSSC[C@H](NC1=O)C(=O)N[C@@H](Cc1ccccc1)C(=O)N[C@@H](CCCNC(=N)N)C(=O)N[C@@H](CCCNC(=N)N)C(=O)N[C@@H](CCCNC(=N)N)C(=O)N2 [inhibitor 6, &^1Arg-Arg-Arg-Cys(&^2)-Lys-Lys-Ser-Ile-Pro-Pro-Ile-Cys(&^2)-Phe&^1] (cyclo(RRRCKKSIPPICF); disulfide 4-12)",not active,
